Source: ChEMBL document CHEMBL4680330, “Soloxolone methyl, as a 18βH-glycyrrhetinic acid derivate, may result in endoplasmic reticulum stress to induce apoptosis in breast cancer cells” (Bioorg Med Chem, 2021)
pIC50: −log10 of the molar value. Activity calls are given as the source filed them. The rule behind the calls is not given here.

Experiments:
MCF7 [1] = experiment: Induction of apoptosis in human MCF7 cells assessed as early apoptotic cells at 10 uM incubated for 24 hrs by annexin V-FITC and PI staining based flow cytometry analysis (reference value: 0.20 %); assay type: functional
MCF7 [2] = experiment: Induction of endoplasmic reticulum stress in human MCF7 cells assessed as BIP expression at 10 uM incubated for 24 hrs by Western blot analysis (reference value: 1); assay type: functional
MCF7 [3] = experiment: Induction of apoptosis in human MCF7 cells at 10 uM by annexin V-FITC and PI staining based flow cytometry analysis; assay type: functional, cell-based; conditions: TDE = time-dependent effect
MCF7 [4] = experiment: Induction of endoplasmic reticulum stress in human MCF7 cells assessed as CHOP expression at 10 uM incubated for 24 hrs by Western blot analysis (reference value: 1); assay type: functional
MDA-MB-231 [5] = experiment: Induction of early apoptosis in human MDA-MB-231 cells assessed as increase in rate of formation of pycnotic nuclei at 10 uM incubated for 24 hrs by Hoechst 33342 and PI staining based fluorescence microscopic analysis; assay type: functional, cell-based
MDA-MB-231 [6] = experiment: Induction of endoplasmic reticulum stress in human MDA-MB-231 cells assessed as IRE1-alpha expression at 10 uM incubated for 24 hrs by Western blot analysis (reference value: 1); assay type: functional
[7] = Induction of caspase 3/7 activity in human MCF7 cells assessed as induction of apoptosis by measuring necrotic cells at 10 uM incubated for 24 hrs by flow cytometry analysis (reference value: 3.30 %); assay type: functional
MDA-MB-231 [8] = experiment: Induction of cell death in human MDA-MB-231 cells assessed as downregulation of PARP gene at 10 uM measured after 48 hrs by RT-PCR analysis; assay type: functional, cell-based
MCF7 [9] = experiment: Induction of early apoptosis in human MCF7 cells assessed as increase in PI negativity at 10 uM incubated for 24 hrs by Hoechst 33342 and PI staining based fluorescence microscopic analysis; assay type: functional, cell-based
MDA-MB-231 [10] = experiment: Induction of ROS production in human MDA-MB-231 cells at 10 uM incubated for 24 hrs by flow cytometry analysis relative to control; assay type: functional
MCF7 [11] = experiment: Induction of cell death in human MCF7 cells assessed as downregulation of MLKL gene at 10 uM incubated for 48 hrs by RT-PCR analysis; assay type: functional, cell-based
MDA-MB-231 [12] = experiment: Induction of apoptosis in human MDA-MB-231 cells assessed as cleaved pro-caspase 3 level at 10 uM incubated for 24 hrs by Western blot analysis (reference value: 1); assay type: functional
MCF7 [13] = experiment: Induction of cell death in human MCF7 cells assessed as downregulation of PARP gene at 10 uM incubated for 48 hrs by RT-PCR analysis; assay type: functional, cell-based
[14] = Induction of caspase 3/7 activity in human MDA-MB-231 cells assessed as induction of apoptosis by measuring early apoptotic cells at 10 uM incubated for 24 hrs by flow cytometry analysis (reference value: 0.35 %); assay type: functional
MDA-MB-231 [15] = experiment: Induction of apoptosis in human MDA-MB-231 cells assessed as pro-caspase 3 level at 10 uM incubated for 24 hrs by Western blot analysis (reference value: 1); assay type: functional
MCF7 [16] = experiment: Induction of apoptosis in human MCF7 cells assessed as cleaved pro-caspase 8 level at 10 uM incubated for 24 hrs by Western blot analysis (reference value: 1); assay type: functional
MDA-MB-231 [17] = experiment: Induction of cell death in human MDA-MB-231 cells assessed as downregulation of RIPK gene at 10 uM measured after 48 hrs by RT-PCR analysis; assay type: functional, cell-based
MCF7 [18] = experiment: Induction of cell death in human MCF7 cells assessed as downregulation of MLKL gene at 10 uM measured after 48 hrs by RT-PCR analysis; assay type: functional, cell-based
[19] = Induction of caspase 3/7 activity in human MCF7 cells assessed as induction of apoptosis by measuring viable cells at 10 uM incubated for 24 hrs by flow cytometry analysis (reference value: 73.10 %); assay type: functional
MDA-MB-231 [20] = experiment: Induction of endoplasmic reticulum stress in human MDA-MB-231 cells assessed as CHOP expression at 10 uM incubated for 24 hrs by Western blot analysis (reference value: 1); assay type: functional
[21] = test system: Epidermoid carcinoma cell line; experiment: Cytotoxicity against human Epidermoid carcinoma cell line; assay type: functional, cell-based
MDA-MB-231 [22] = experiment: Induction of apoptosis in human MDA-MB-231 cells assessed as PARP level at 10 uM incubated for 24 hrs by Western blot analysis (reference value: 1); assay type: functional
MDA-MB-231 [23] = experiment: Induction of apoptosis in human MDA-MB-231 cells assessed as viable cells at 10 uM incubated for 24 hrs by annexin V-FITC and PI staining based flow cytometry analysis (reference value: 94.40 %); assay type: functional; conditions: read-out: Activity
MCF7 [24] = experiment: Induction of cell death in human MCF7 cells assessed as downregulation of RIPK gene at 10 uM measured after 48 hrs by RT-PCR analysis; assay type: functional, cell-based
MDA-MB-231 [25] = experiment: Induction of apoptosis in human MDA-MB-231 cells assessed as cleaved pro-caspase 8 level at 10 uM incubated for 24 hrs by Western blot analysis (reference value: 1); assay type: functional
MCF7 [26] = experiment: Induction of apoptosis in human MCF7 cells assessed as cytokeratin 18 by measuring increase in M-30 level at 10 uM incubated for 24 hrs by ELISA; assay type: functional, cell-based
MCF7 [27] = experiment: Induction of late apoptosis in human MCF7 cells assessed as increase in PI […] at 10 uM by Hoechst 33342 and PI staining based fluorescence microscopic analysis; assay type: functional, cell-based; conditions: TDE = time-dependent effect
MCF7 [28] = experiment: Induction of apoptosis in human MCF7 cells assessed as viable cells at 10 uM incubated for 24 hrs by annexin V-FITC and PI staining based flow cytometry analysis (reference value: 69.60 %); assay type: functional; conditions: read-out: Activity
MDA-MB-231 [29] = experiment: Induction of apoptosis in human MDA-MB-231 cells assessed as late apoptotic cells at 10 uM incubated for 24 hrs by annexin V-FITC and PI staining based flow cytometry analysis (reference value: 3.95 %); assay type: functional
MDA-MB-231 [30] = experiment: Induction of cell death in human MDA-MB-231 cells assessed as downregulation of MLKL gene at 10 uM measured after 48 hrs by RT-PCR analysis; assay type: functional, cell-based
MCF7 [31] = experiment: Induction of cell death in human MCF7 cells assessed as upregulation of HRK gene at 10 uM incubated for 24 hrs by RT-PCR analysis; assay type: functional, cell-based

## COC(=O)[C@@]1(C)CC[C@]2(C)CC[C@]3(C)[C@H](C(=O)C=C4[C@@]5(C)C=C(C#N)C(=O)C(C)(C)[C@@H]5CC[C@]43C)[C@@H]2C1
MCF7 [1]
  Activity: 0.2%
MCF7 [2]
  fold change (FC): 0.8
MCF7 [3]
  Activity: Tde
MCF7 [4]
  fold change (FC): 0.3
MDA-MB-231 [5]
  Activity: Active
MDA-MB-231 [6]
  fold change (FC): 1.1
[7]
  Activity: 14.7%
MDA-MB-231 [8]
  Activity: inactive
MCF7 [9]
  Activity: Active
MDA-MB-231 [10]
  Activity: 49.6%
MCF7 [11]
  Activity: Active
MDA-MB-231 [12]
  fold change (FC): 12.7
MCF7 [13]
  Activity: Active
[14]
  Activity: 12.75%
MDA-MB-231 [15]
  fold change (FC): 1.3
MCF7 [16]
  fold change (FC): 1.01
MDA-MB-231 [17]
  Activity: inactive
MCF7 [18]
  Activity: inactive
[19]
  Activity: 60.2%
MDA-MB-231 [20]
  fold change (FC): 6
[21]
  pIC50: ≤ 6.52
MDA-MB-231 [22]
  fold change (FC): 0.6
MDA-MB-231 [23]
  viability at 10 µM: 25.2%
MCF7 [24]
  Activity: inactive
MDA-MB-231 [25]
  fold change (FC): 2.4
MCF7 [26]
  Activity: inactive
MCF7 [27]
  Activity: Tde
MCF7 [28]
  viability at 10 µM: 70.7%
MDA-MB-231 [29]
  Activity: 69.55%
MDA-MB-231 [30]
  Activity: inactive
MCF7 [31]
  Activity: Active
